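Compound exposure: 48 hours, 5 concentrations, 96-well plates. The concentration for 50% growth inhibition is given as GI50. TGI is the concentration that stops growth completely.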
How the values were obtained:
Assay in all cases: NCI tumour cell line growth inhibition, 48 h
786-0 renal = tested on: 786-0 renal
A498 renal = tested on: A498 renal
A549 NSCLC = tested on: A549 NSCLC
ACHN renal = tested on: ACHN renal
BT-549 breast = tested on: BT-549 breast
CAKI-1 renal = tested on: CAKI-1 renal
CCRF-CEM leukemia = tested on: CCRF-CEM leukemia
COLO 205 colon = tested on: COLO 205 colon
DU-145 prostate = tested on: DU-145 prostate
HCC-2998 colon = tested on: HCC-2998 colon
HCT-116 colon = tested on: HCT-116 colon
HCT-15 colon = tested on: HCT-15 colon
HL-60(TB) leukemia = tested on: HL-60(TB) leukemia
HOP-62 NSCLC = tested on: HOP-62 NSCLC
HOP-92 NSCLC = tested on: HOP-92 NSCLC
HS 578T breast = tested on: HS 578T breast
HT29 colon = tested on: HT29 colon
IGROV1 ovarian = tested on: IGROV1 ovarian
K-562 leukemia = tested on: K-562 leukemia
KM12 colon = tested on: KM12 colon
LOX IMVI melanoma = tested on: LOX IMVI melanoma
M14 melanoma = tested on: M14 melanoma
MALME-3M melanoma = tested on: MALME-3M melanoma
MCF7 breast = tested on: MCF7 breast
MDA-MB-231 breast = tested on: MDA-MB-231 breast
MDA-MB-435 = tested on: MDA-MB-435
MOLT-4 leukemia = tested on: MOLT-4 leukemia
NCI-H23 lung = tested on: NCI-H23 lung
NCI-H460 lung = tested on: NCI-H460 lung
NCI-H522 lung = tested on: NCI-H522 lung
NCI/ADR-RES ovarian = tested on: NCI/ADR-RES ovarian
OVCAR-3 ovarian = tested on: OVCAR-3 ovarian
OVCAR-4 ovarian = tested on: OVCAR-4 ovarian
OVCAR-5 ovarian = tested on: OVCAR-5 ovarian
OVCAR-8 ovarian = tested on: OVCAR-8 ovarian
PC-3 prostate = tested on: PC-3 prostate
RPMI-8226 leukemia = tested on: RPMI-8226 leukemia
RXF 393 renal = tested on: RXF 393 renal
SF-268 CNS = tested on: SF-268 CNS
SF-295 CNS = tested on: SF-295 CNS
SF-539 CNS = tested on: SF-539 CNS
SK-MEL-2 melanoma = tested on: SK-MEL-2 melanoma
SK-MEL-5 melanoma = tested on: SK-MEL-5 melanoma
SK-OV-3 ovarian = tested on: SK-OV-3 ovarian
SN12C renal = tested on: SN12C renal
SNB-19 CNS = tested on: SNB-19 CNS
SNB-75 CNS = tested on: SNB-75 CNS
SR leukemia = tested on: SR leukemia
SW-620 colon = tested on: SW-620 colon
T-47D breast = tested on: T-47D breast
TK-10 renal = tested on: TK-10 renal
U251 CNS = tested on: U251 CNS
UACC-257 melanoma = tested on: UACC-257 melanoma
UO-31 renal = tested on: UO-31 renal
EKVX NSCLC = tested on: EKVX NSCLC
NCI-H226 lung = tested on: NCI-H226 lung
SK-MEL-28 melanoma = tested on: SK-MEL-28 melanoma
UACC-62 melanoma = tested on: UACC-62 melanoma

CNCCn1c(=O)c2cc(OC)c(OC)cc2c2cnc3cc4c(cc3c21)OCO4
GI50 (786-0 renal): < 10 nM
TGI (786-0 renal): 16.8 nM
GI50 (A498 renal): 19.4 nM
TGI (A498 renal): 135 nM
GI50 (A549 NSCLC): < 10 nM
TGI (A549 NSCLC): 1310 nM
GI50 (ACHN renal): < 10 nM
TGI (ACHN renal): 1120 nM
GI50 (BT-549 breast): 30.9 nM
TGI (BT-549 breast): 1790 nM
GI50 (CAKI-1 renal): < 10 nM
TGI (CAKI-1 renal): 128 nM
GI50 (CCRF-CEM leukemia): < 10 nM
TGI (CCRF-CEM leukemia): 1190 nM
GI50 (COLO 205 colon): 30.4 nM
TGI (COLO 205 colon): 2060 nM
GI50 (DU-145 prostate): < 10 nM
TGI (DU-145 prostate): 1270 nM
GI50 (HCC-2998 colon): 48.4 nM
TGI (HCC-2998 colon): 1790 nM
GI50 (HCT-116 colon): < 10 nM
TGI (HCT-116 colon): 135 nM
GI50 (HCT-15 colon): 35.9 nM
TGI (HCT-15 colon): 1550 nM
GI50 (HL-60(TB) leukemia): < 10 nM
TGI (HL-60(TB) leukemia): 111 nM
GI50 (HOP-62 NSCLC): < 10 nM
TGI (HOP-62 NSCLC): 1610 nM
GI50 (HOP-92 NSCLC): < 14.9 nM
TGI (HOP-92 NSCLC): 518 nM
GI50 (HS 578T breast): 1680 nM
TGI (HS 578T breast): 4440 nM
GI50 (HT29 colon): 11.9 nM
TGI (HT29 colon): 110 nM
GI50 (IGROV1 ovarian): 27.6 nM
TGI (IGROV1 ovarian): 1760 nM
GI50 (K-562 leukemia): 25.2 nM
TGI (K-562 leukemia): 2200 nM
GI50 (KM12 colon): 48.3 nM
TGI (KM12 colon): 1600 nM
GI50 (LOX IMVI melanoma): < 10 nM
TGI (LOX IMVI melanoma): 100 nM
GI50 (M14 melanoma): < 10 nM
TGI (M14 melanoma): 1360 nM
GI50 (MALME-3M melanoma): 50 nM
TGI (MALME-3M melanoma): 5750 nM
GI50 (MCF7 breast): < 10 nM
TGI (MCF7 breast): 1140 nM
GI50 (MDA-MB-231 breast): 190 nM
TGI (MDA-MB-231 breast): 1670 nM
GI50 (MDA-MB-435): 18.9 nM
TGI (MDA-MB-435): 2020 nM
GI50 (MOLT-4 leukemia): < 10 nM
TGI (MOLT-4 leukemia): 30.3 nM
GI50 (NCI-H23 lung): < 11.2 nM
TGI (NCI-H23 lung): 1330 nM
GI50 (NCI-H460 lung): < 10 nM
TGI (NCI-H460 lung): 217 nM
GI50 (NCI-H522 lung): < 10 nM
TGI (NCI-H522 lung): 26.1 nM
GI50 (NCI/ADR-RES ovarian): 32 nM
TGI (NCI/ADR-RES ovarian): 1510 nM
GI50 (OVCAR-3 ovarian): 39.3 nM
TGI (OVCAR-3 ovarian): 2020 nM
GI50 (OVCAR-4 ovarian): 34.7 nM
TGI (OVCAR-4 ovarian): 2210 nM
GI50 (OVCAR-5 ovarian): 25.9 nM
TGI (OVCAR-5 ovarian): 304 nM
GI50 (OVCAR-8 ovarian): < 10 nM
TGI (OVCAR-8 ovarian): 1340 nM
GI50 (PC-3 prostate): 21 nM
TGI (PC-3 prostate): 1870 nM
GI50 (RPMI-8226 leukemia): 25.4 nM
TGI (RPMI-8226 leukemia): 915 nM
GI50 (RXF 393 renal): < 10 nM
TGI (RXF 393 renal): 35.2 nM
GI50 (SF-268 CNS): < 10 nM
TGI (SF-268 CNS): 1780 nM
GI50 (SF-295 CNS): < 10 nM
TGI (SF-295 CNS): < 15.5 nM
GI50 (SF-539 CNS): < 10 nM
TGI (SF-539 CNS): 10.3 nM
GI50 (SK-MEL-2 melanoma): 2320 nM
TGI (SK-MEL-2 melanoma): 4910 nM
GI50 (SK-MEL-5 melanoma): 10 nM
TGI (SK-MEL-5 melanoma): 25.4 nM
GI50 (SK-OV-3 ovarian): < 10.4 nM
TGI (SK-OV-3 ovarian): 1820 nM
GI50 (SN12C renal): < 10 nM
TGI (SN12C renal): 1250 nM
GI50 (SNB-19 CNS): < 10 nM
TGI (SNB-19 CNS): 2280 nM
GI50 (SNB-75 CNS): < 10 nM
TGI (SNB-75 CNS): 65.8 nM
GI50 (SR leukemia): < 10 nM
GI50 (SW-620 colon): 12.1 nM
TGI (SW-620 colon): 1950 nM
GI50 (T-47D breast): < 10 nM
TGI (T-47D breast): 1480 nM
GI50 (TK-10 renal): 46.5 nM
TGI (TK-10 renal): 2160 nM
GI50 (U251 CNS): < 10 nM
TGI (U251 CNS): 24.2 nM
GI50 (UACC-257 melanoma): 26.7 nM
TGI (UACC-257 melanoma): 5660 nM
GI50 (UO-31 renal): < 10 nM
TGI (UO-31 renal): 1210 nM

COCCn1cnc2c(Cl)nc(Nc3ccccc3)nc21
TGI (786-0 renal): > 100000 nM
TGI (A498 renal): > 100000 nM
TGI (A549 NSCLC): > 100000 nM
TGI (ACHN renal): 36400 nM
TGI (BT-549 breast): 99000 nM
TGI (CCRF-CEM leukemia): 46900 nM
TGI (COLO 205 colon): > 100000 nM
TGI (DU-145 prostate): > 100000 nM
TGI (EKVX NSCLC): 51900 nM
TGI (HCC-2998 colon): 40000 nM
TGI (HCT-116 colon): > 100000 nM
TGI (HCT-15 colon): 69100 nM
TGI (HL-60(TB) leukemia): 63300 nM
TGI (HOP-62 NSCLC): > 100000 nM
TGI (HS 578T breast): 61600 nM
TGI (HT29 colon): > 100000 nM
TGI (IGROV1 ovarian): 50900 nM
TGI (K-562 leukemia): > 100000 nM
TGI (KM12 colon): > 100000 nM
TGI (LOX IMVI melanoma): 33200 nM
TGI (M14 melanoma): 60800 nM
TGI (MCF7 breast): > 100000 nM
TGI (MDA-MB-231 breast): 75600 nM
TGI (MDA-MB-435): 40700 nM
TGI (MOLT-4 leukemia): 60500 nM
TGI (NCI-H226 lung): > 100000 nM
TGI (NCI-H23 lung): > 100000 nM
TGI (NCI-H460 lung): > 100000 nM
TGI (NCI/ADR-RES ovarian): > 100000 nM
TGI (OVCAR-3 ovarian): 34100 nM
TGI (OVCAR-4 ovarian): 46700 nM
TGI (OVCAR-5 ovarian): > 100000 nM
TGI (OVCAR-8 ovarian): 54900 nM
TGI (PC-3 prostate): 56400 nM
TGI (RPMI-8226 leukemia): > 100000 nM
TGI (RXF 393 renal): 47400 nM
TGI (SF-268 CNS): > 100000 nM
TGI (SF-295 CNS): > 100000 nM
TGI (SF-539 CNS): > 100000 nM
TGI (SK-MEL-2 melanoma): 47400 nM
TGI (SK-MEL-28 melanoma): > 100000 nM
TGI (SK-MEL-5 melanoma): > 100000 nM
TGI (SK-OV-3 ovarian): > 100000 nM
TGI (SN12C renal): 95400 nM
TGI (SNB-19 CNS): > 100000 nM
TGI (SNB-75 CNS): > 100000 nM
TGI (SR leukemia): > 100000 nM
TGI (SW-620 colon): > 100000 nM
TGI (T-47D breast): > 100000 nM
TGI (TK-10 renal): > 100000 nM
TGI (U251 CNS): > 100000 nM
TGI (UACC-257 melanoma): > 100000 nM
TGI (UACC-62 melanoma): 85100 nM

— PubChem BioAssay (NCI)
